This is an account of results in patent publication US7507730B2, “Substituted pyrazolo[1,5-a]pyrimidines as potassium channel activators” (Bristol-Myers Squibb Company, priority 2005, dated 2009).

Kv1.5, sequence (P22460 whole entry): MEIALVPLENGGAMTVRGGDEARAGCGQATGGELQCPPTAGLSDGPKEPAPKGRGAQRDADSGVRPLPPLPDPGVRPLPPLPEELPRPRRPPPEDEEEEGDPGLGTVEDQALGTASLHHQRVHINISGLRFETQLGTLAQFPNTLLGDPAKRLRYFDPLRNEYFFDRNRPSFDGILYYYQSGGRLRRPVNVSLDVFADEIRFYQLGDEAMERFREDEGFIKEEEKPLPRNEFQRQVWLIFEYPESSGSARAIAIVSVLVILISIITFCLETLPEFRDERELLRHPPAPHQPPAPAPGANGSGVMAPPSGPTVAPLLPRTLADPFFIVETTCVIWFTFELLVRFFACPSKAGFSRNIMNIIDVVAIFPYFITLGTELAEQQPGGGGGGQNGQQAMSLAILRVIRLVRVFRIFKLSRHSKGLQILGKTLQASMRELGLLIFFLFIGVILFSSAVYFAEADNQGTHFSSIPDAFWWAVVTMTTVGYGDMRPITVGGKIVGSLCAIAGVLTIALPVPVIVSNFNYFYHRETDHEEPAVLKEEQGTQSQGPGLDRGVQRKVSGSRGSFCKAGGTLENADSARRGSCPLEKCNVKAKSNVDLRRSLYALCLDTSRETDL

The target in the first assay is Kv1.5 (Homo sapiens, UniProt P22460). As to the kind of experiment: Kv1.5 inhibition assay (IKur inhibitor assay per cited references). The assay is classed as cell-based. Conditions: at 0.3 μM. An excerpt:
Assays to determine the degree of activity of a compound as an IKur inhibitor are well known in the art and are described in references such as J. Gen. Physiol. Apr.; 101 (4):513-43, and Br. J. Pharmacol. 1995 May; 115(2):267-74.
The molecule `CCCS(=O)(=O)N(C(=O)C1=C(C)Nc2cc(C(F)(F)F)nn2C1c1ccc(Cl)c(Cl)c1)C1CC1` (racemic) [Example 88, N-Cyclopropyl-7-(3,4-dichlorophenyl)-5-methyl-N-(propylsulfonyl)-2-(trifluoromethyl)-4,7-dihydropyrazolo[1,5-a]pyrimidine-6-carboxamide] registered an inhibition at 0.3 µM of 71%. With `CC1=C(C(=O)N(C)S(=O)(=O)c2ccc(Cl)cc2)C(c2ccc(Cl)c(Cl)c2)n2nc(C(F)(F)F)cc2N1` (racemic) [Example 89, N-(4-Chlorophenylsulfonyl)-7-(3,4-dichlorophenyl)-N,5-dimethyl-2-(trifluoromethyl)-4,7-dihydropyrazolo[1,5-a]pyrimidine-6-carboxamide], the inhibition at 0.3 µM came to 40%.

`Cc1nc2cc(C(F)(F)F)nn2c(-c2ccc(Cl)c(Cl)c2)c1C(=O)N(C)S(=O)(=O)c1ccccc1` (racemic) [Example 92, 7-(3,4-Dichlorophenyl)-N,5-dimethyl-N-(phenylsulfonyl)-2-(trifluoromethyl)pyrazolo[1,5-a]pyrimidine-6-carboxamide] had an inhibition at 0.3 µM of 41%.

Regarding `CC1=C(S(=O)(=O)c2ccc(F)cc2)C(c2ccc(Cl)c(Cl)c2)n2nc(C)cc2N1` (single isomer, unassigned) [Example 1 Isomer 1, 7-(3,4-Dichlorophenyl)-6-(4-fluorophenylsulfonyl)-2,5-dimethyl-4,7-dihydropyrazolo[1,5-a]pyrimidine], the Kv1.5% inhibition came out at 98%.

The molecule `CC1=C(S(=O)(=O)c2ccc(F)cc2)C(c2ccc(Cl)c(Cl)c2)n2nc(C)cc2N1` (single isomer, unassigned) [Example 1 Isomer 2, 7-(3,4-Dichlorophenyl)-6-(4-fluorophenylsulfonyl)-2,5-dimethyl-4,7-dihydropyrazolo[1,5-a]pyrimidine] registered a Kv1.5% inhibition of 48%.

As for `CC1=C(S(=O)(=O)c2ccc(Cl)cc2)C(c2ccc(Cl)c(Cl)c2)n2nc(C(F)(F)F)cc2N1` (single isomer, unassigned) [Example 4 Isomer 2, 6-(4-Chlorophenylsulfonyl)-7-(3,4-dichlorophenyl)-5-methyl-2-(trifluoromethyl)-4,7-dihydropyrazolo[1,5-a]pyrimidine], the inhibition at 0.3 µM was determined as 36.2%. The molecule `CC1=C(S(=O)(=O)c2ccccc2)C(c2ccc(Cl)c(F)c2)n2nc(C)cc2N1` (single isomer, unassigned) [Example 7 Isomer 1, 7-(4-Chloro-3-fluorophenyl)-2,5-dimethyl-6-(phenylsulfonyl)-4,7-dihydropyrazolo[1,5-a]pyrimidine] came in with a Kv1.5% inhibition of 90.8%.

Molecule `CC1=C(S(=O)(=O)c2ccccc2)C(c2ccc(Cl)c(F)c2)n2nc(C)cc2N1` (single isomer, unassigned) [Example 7 Isomer 2, 7-(4-Chloro-3-fluorophenyl)-2,5-dimethyl-6-(phenylsulfonyl)-4,7-dihydropyrazolo[1,5-a]pyrimidine] showed a Kv1.5% inhibition of 32.4%. In turn, `CC1=C(S(=O)(=O)c2ccc(C(F)(F)F)cc2)C(c2ccc(Cl)c(Cl)c2)n2nc(C)cc2N1` (single isomer, unassigned) [Example 9 Isomer 2, 7-(3,4-Dichlorophenyl)-2,5-dimethyl-6-(4-(trifluoromethyl)phenylsulfonyl)-4,7-dihydropyrazolo[1,5-a]pyrimidine] returned an inhibition at 0.3 µM of 59.7%. The same measure, in the same setting: to `CC1=C(S(=O)(=O)C2CCCCC2)C(c2ccc(Cl)c(Cl)c2)n2nc(C)cc2N1` (single isomer, unassigned) [Example 10 Isomer 2, 6-(Cyclohexylsulfonyl)-7-(3,4-dichlorophenyl)-2,5-dimethyl-4,7-dihydropyrazolo[1,5-a]pyrimidine] belongs 59.3%. `CC1=C(S(=O)(=O)c2ccccn2)C(c2ccc(Cl)c(Cl)c2)n2nc(C)cc2N1` (single isomer, unassigned) [Example 11 Isomer 1, 7-(3,4-Dichlorophenyl)-2,5-dimethyl-6-(pyridin-2-ylsulfonyl)-4,7-dihydropyrazolo[1,5-a]pyrimidine]: the Kv1.5% inhibition is given as 72.5%. For `CC1=C(S(=O)(=O)c2ccccn2)C(c2ccc(Cl)c(Cl)c2)n2nc(C)cc2N1` (single isomer, unassigned) [Example 11 Isomer 2, 7-(3,4-Dichlorophenyl)-2,5-dimethyl-6-(pyridin-2-ylsulfonyl)-4,7-dihydropyrazolo[1,5-a]pyrimidine], the Kv1.5% inhibition amounted to 21.5%.

In the case of `COc1ccc(S(=O)(=O)C2=C(C)Nc3cc(C)nn3C2c2cccc(Cl)c2)cc1` (single isomer, unassigned) [Example 17 Isomer 2, 7-(3-Chlorophenyl)-6-(4-methoxyphenylsulfonyl)-2,5-dimethyl-4,7-dihydropyrazolo[1,5-a]pyrimidine], the inhibition at 0.3 µM came out at 18.1%. `CCCCS(=O)(=O)C1=C(C)Nc2cc(C)nn2C1c1ccc(Cl)c(Cl)c1` (single isomer, unassigned) [Example 18 Isomer 1, 6-(Butylsulfonyl)-7-(3,4-dichlorophenyl)-2,5-dimethyl-4,7-dihydropyrazolo[1,5-a]pyrimidine]: the Kv1.5% inhibition turned out to be 84.6%.

The assay is the same for the next values; noted with them: read-out: Kv1.5 IC50.
In the case of `CC1=C(C(=O)N(C)S(=O)(=O)C(C)C)C(c2ccc(Cl)c(Cl)c2)n2nc(C(F)(F)F)cc2N1` (racemic) [Example 87, 7-(3,4-Dichlorophenyl)-N-(isopropylsulfonyl)-N,5-dimethyl-2-(trifluoromethyl)-4,7-dihydropyrazolo[1,5-a]pyrimidine-6-carboxamide], the IC50 stood at 259 nM.

For `CC1=C(S(=O)(=O)c2ccc(Cl)cc2)C(c2ccc(Cl)c(Cl)c2)n2nccc2N1` (single isomer, unassigned) [Example 2 Isomer 1, 6-(4-Chlorophenylsulfonyl)-7-(3,4-dichlorophenyl)-5-methyl-4,7-dihydropyrazolo[1,5-a]pyrimidine], the IC50 worked out at 92 nM.

Consider `CC1=C(S(=O)(=O)c2ccc(Cl)cc2)C(c2ccc(Cl)c(Cl)c2)n2nccc2N1` (single isomer, unassigned) [Example 2 Isomer 2, 6-(4-Chlorophenylsulfonyl)-7-(3,4-dichlorophenyl)-5-methyl-4,7-dihydropyrazolo[1,5-a]pyrimidine], for which the IC50 came out at 37 nM.

For `CC1=C(S(=O)(=O)c2ccccc2)C(c2ccc(Cl)c(Cl)c2)n2nc(C)cc2N1` (single isomer, unassigned) [Example 3 Isomer 1, 7-(3,4-Dichlorophenyl)-2,5-dimethyl-6-(phenylsulfonyl)-4,7-dihydropyrazolo[1,5-a]pyrimidine], the 50% inhibitory concentration (IC50) was found to be 41 nM. Consider `CC1=C(S(=O)(=O)c2ccccc2)C(c2ccc(Cl)c(Cl)c2)n2nc(C)cc2N1` (single isomer, unassigned) [Example 3 Isomer 2, 7-(3,4-Dichlorophenyl)-2,5-dimethyl-6-(phenylsulfonyl)-4,7-dihydropyrazolo[1,5-a]pyrimidine], for which the IC50 was found to be 293 nM. `CC1=C(S(=O)(=O)c2ccc(Cl)cc2)C(c2ccc(Cl)c(Cl)c2)n2nc(C(F)(F)F)cc2N1` (single isomer, unassigned) [Example 4 Isomer 1, 6-(4-Chlorophenylsulfonyl)-7-(3,4-dichlorophenyl)-5-methyl-2-(trifluoromethyl)-4,7-dihydropyrazolo[1,5-a]pyrimidine]: the 50% inhibitory concentration (IC50) was 180 nM. Consider `CC1=C(S(=O)(=O)c2ccc(C)cc2)C(c2ccc(Cl)c(Cl)c2)n2nc(C)cc2N1` (single isomer, unassigned) [Example 5 Isomer 1, 7-(3,4-Dichlorophenyl)-2,5-dimethyl-6-tosyl-4,7-dihydropyrazolo[1,5-a]pyrimidine], for which the IC50 was determined as 48 nM. Still for that read-out and setting: then `CC1=C(S(=O)(=O)c2ccc(C)cc2)C(c2ccc(Cl)c(Cl)c2)n2nc(C)cc2N1` (single isomer, unassigned) [Example 5 Isomer 2, 7-(3,4-Dichlorophenyl)-2,5-dimethyl-6-tosyl-4,7-dihydropyrazolo[1,5-a]pyrimidine], with 131 nM; and `COc1ccc(S(=O)(=O)C2=C(C)Nc3cc(C)nn3C2c2ccc(Cl)c(Cl)c2)cc1` (single isomer, unassigned) [Example 8 Isomer 1, 7-(3,4-Dichlorophenyl)-6-(4-methoxyphenylsulfonyl)-2,5-dimethyl-4,7-dihydropyrazolo[1,5-a]pyrimidine], with 23 nM. As for `COc1ccc(S(=O)(=O)C2=C(C)Nc3cc(C)nn3C2c2ccc(Cl)c(Cl)c2)cc1` (single isomer, unassigned) [Example 8 Isomer 2, 7-(3,4-Dichlorophenyl)-6-(4-methoxyphenylsulfonyl)-2,5-dimethyl-4,7-dihydropyrazolo[1,5-a]pyrimidine], the IC50 was 174 nM. For the molecule `CC1=C(S(=O)(=O)c2ccc(C(F)(F)F)cc2)C(c2ccc(Cl)c(Cl)c2)n2nc(C)cc2N1` (single isomer, unassigned) [Example 9 Isomer 1, 7-(3,4-Dichlorophenyl)-2,5-dimethyl-6-(4-(trifluoromethyl)phenylsulfonyl)-4,7-dihydropyrazolo[1,5-a]pyrimidine], the half-maximal inhibitory concentration (IC50) was determined as 234 nM. Still for that read-out and setting: to `CC1=C(S(=O)(=O)C2CCCCC2)C(c2ccc(Cl)c(Cl)c2)n2nc(C)cc2N1` (single isomer, unassigned) [Example 10 Isomer 1, 6-(Cyclohexylsulfonyl)-7-(3,4-dichlorophenyl)-2,5-dimethyl-4,7-dihydropyrazolo[1,5-a]pyrimidine] belongs 77 nM; to `CC1=C(S(=O)(=O)c2ccc(F)cc2)C(c2ccc(Cl)c(Cl)c2)n2nc(C(F)(F)F)cc2N1` (single isomer, unassigned) [Example 12 Isomer 1, 7-(3,4-Dichlorophenyl)-6-(4-fluorophenylsulfonyl)-5-methyl-2-(trifluoromethyl)-4,7-dihydropyrazolo[1,5-a]pyrimidine], 142 nM.

For `COc1ccc(S(=O)(=O)C2=C(C)Nc3cc(C)nn3C2c2cccc(Cl)c2)cc1` (single isomer, unassigned) [Example 17 Isomer 1, 7-(3-Chlorophenyl)-6-(4-methoxyphenylsulfonyl)-2,5-dimethyl-4,7-dihydropyrazolo[1,5-a]pyrimidine], the half-maximal inhibitory concentration (IC50) is 256 nM.
